Our source for the IC50 values is US20250122181A1, “BENZIMIDAZOLES AS MODULATORS OF IL-17” (Janssen Pharmaceutica NV, priority 2021, published 2025).

In test [1] the target is IL-17A(FLAG-Tagged): IL-17RA(His-Tagged) (Homo sapiens, UniProt Q16552, K93Q). As to the kind of experiment: IL-17A(FLAG-Tagged): IL-17RA(His-Tagged) Binding Disruption Eu-HTRF Assay, Protocol 1. The settings on record: Protocol 1, FLAG tagged IL-17A 2.5 nM; simple average if tested more than once. A digest of the protocol:
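IC50 came from a one-site competition fit of the acceptor/donor (665/620 nm) HTRF ratio. His-tagged IL-17RA, Eu-anti-FLAG and D2-anti-His were added after a 1 h rt compound preincubation with FLAG-tagged IL-17A dimer in PBS/0.01% Triton X-100, followed by 2 h at rt before reading.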

Test [2] has as its system IL-17A-induced G-CSF production in human normal keratinocyte (NHK). As to the kind of experiment: NHK Assay: IL-17A-induced G-CSF production in human normal keratinocyte. The class given is cell-based. The following applies: Homo sapiens, Keratinocyte, 24 h, IL-17A 5 ng/mL, simple average if tested more than once. A digest of the protocol: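 IC50 derives from G-CSF in supernatants, quantified by HTRF from a standard curve, with CellTiter-Glo viability compared to DMSO control. Before a 24 h, 37°C culture of normal human keratinocytes at 3000–4000 cells/well, compound dilutions were preincubated 1 h at rt with human IL-17A (5 ng/mL final), with 0.2% DMSO and 5% FBS.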

UniProt Q16552, sequence (Q16552 with tags, fused parts or gaps K93Q): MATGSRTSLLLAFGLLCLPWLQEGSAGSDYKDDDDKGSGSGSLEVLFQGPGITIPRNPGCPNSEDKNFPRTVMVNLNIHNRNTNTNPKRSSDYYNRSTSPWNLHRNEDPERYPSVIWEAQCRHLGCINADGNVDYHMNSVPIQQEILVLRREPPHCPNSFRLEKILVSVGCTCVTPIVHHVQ

As for `Cc1nonc1C(=O)NC(COC(C)(C)C(F)(F)F)c1nc2cc([C@@H](C)N3C[C@@H](C(F)(F)F)NC3=O)ccc2[nH]1` (single isomer, unassigned) [Example 6, 4-Methyl-N—((R*)-1-(5-((R)-1-((S)-2-oxo-4-(trifluoromethyl)imidazolidin-1-yl)ethyl)-1H-benzo[d]imidazol-2-yl)-2-((1,1,1-trifluoro-2-methylpropan-2-yl)oxy)ethyl)-1,2,5-oxadiazole-3-carboxamide], the half-maximal inhibitory concentration (IC50) in test [1] and in test [2] was under 50 nM in each case.
Consider `COCC(c1ccc2[nH]c([C@H](COC(C)(C)C(F)(F)F)NC(=O)c3nonc3C)nc2c1)N1CC(C)(C)NC1=O` (single isomer, unassigned) [Example 48, N—((R)-1-(5-((R*)-1-(4,4-Dimethyl-2-oxoimidazolidin-1-yl)-2-methoxyethyl)-1H-benzo[d]imidazol-2-yl)-2-((1,1,1-trifluoro-2-methylpropan-2-yl)oxy)ethyl)-4-methyl-1,2,5-oxadiazole-3-carboxamide], for which the IC50 in test [1] and in test [2] was under 50 nM in each case.
For `CC(C)n1nccc1C(=O)NC(c1nc2cc([C@@H](C3CC3)N3C[C@@H](C(F)(F)F)NC3=O)ccc2[nH]1)[C@@H](C)O[C@@H](C)C(F)(F)F` (single isomer, unassigned) [Example 15, N-((1R*,2R)-1-(5-((R)-Cyclopropyl((S)-2-oxo-4-(trifluoromethyl)imidazolidin-1-yl)methyl)-1H-benzo[d]imidazol-2-yl)-2-(((S)-1,1,1-trifluoropropan-2-yl)oxy)propyl)-1-isopropyl-1H-pyrazole-5-carboxamide], the IC50 in test [1] and in test [2] was under 50 nM in each case.
Consider `CC(C)n1nccc1C(=O)N[C@@H](COC(C)(C)C(F)(F)F)c1nc2nc(CN3C[C@H](C(F)(F)F)NC3=O)ccc2[nH]1` (relative stereo) [Example 36, 1-Isopropyl-N—((R*)-1-(5-(((R*)-2-oxo-4-(trifluoromethyl)imidazolidin-1-yl)methyl)-1H-imidazo[4,5-b]pyridin-2-yl)-2-((1,1,1-trifluoro-2-methylpropan-2-yl)oxy)ethyl)-1H-pyrazole-5-carboxamide], for which the concentration for half-maximal inhibition (IC50) in test [1] and in test [2] was under 50 nM each time.
For the compound `Cc1nonc1C(=O)N[C@@H](COC(C)(C)C(F)(F)F)c1nc2cc([C@@H](C)N3CC(F)(F)CNC3=O)ccc2[nH]1` (relative stereo) [Example 26, N—((R)-1-(5-((R*)-1-(5,5-Difluoro-2-oxotetrahydropyrimidin-1(2H)-yl)ethyl)-1H-benzo[d]imidazol-2-yl)-2-((1,1,1-trifluoro-2-methylpropan-2-yl)oxy)ethyl)-4-methyl-1,2,5-oxadiazole-3-carboxamide], the IC50 in test [1] and in test [2] was under 50 nM each time.
Turning to `COC[C@H](c1ccc2[nH]c(C(COC(C)(C)C(F)(F)F)NC(=O)c3nonc3C)nc2c1)N1CC(F)(F)CNC1=O` (single isomer, unassigned) [Example 34, N—((R*)-1-(5-((S)-1-(5,5-Difluoro-2-oxotetrahydropyrimidin-1(2H)-yl)-2-methoxyethyl)-1H-benzo[d]imidazol-2-yl)-2-((1,1,1-trifluoro-2-methylpropan-2-yl)oxy)ethyl)-4-methyl-1,2,5-oxadiazole-3-carboxamide], the IC50 in test [1] and in test [2] was under 50 nM in each case.
`Cc1nonc1C(=O)NC(COC(C)(C)C(F)(F)F)c1nc2cc([C@@H](COC3CC3)N3CC(F)(F)CNC3=O)ccc2[nH]1` (single isomer, unassigned) [Example 56, N—((R*)-1-(5-((S)-2-Cyclopropoxy-1-(5,5-difluoro-2-oxotetrahydropyrimidin-1(2H)-yl)ethyl)-1H-benzo[d]imidazol-2-yl)-2-((1,1,1-trifluoro-2-methylpropan-2-yl)oxy)ethyl)-4-methyl-1,2,5-oxadiazole-3-carboxamide]: the concentration for half-maximal inhibition (IC50) in test [1] and in test [2] was under 50 nM throughout.
For the compound `[2H]C1([2H])[C@@H](C(F)(F)F)NC(=O)N1[C@H](COC)c1ccc2[nH]c([C@H](COC(C)(C)C(F)(F)F)NC(=O)c3nonc3C)nc2c1` (relative stereo) [Example 55, N—((R*)-1-(5-((S)-2-methoxy-1-((S*)-2-oxo-4-(trifluoromethyl)imidazolidin-1-yl-5,5-d2)ethyl)-1H-benzo[d]imidazol-2-yl)-2-((1,1,1-trifluoro-2-methylpropan-2-yl)oxy)ethyl)-4-methyl-1,2,5-oxadiazole-3-carboxamide], the IC50 in test [1] and in test [2] was under 50 nM in each case.
Turning to `Cc1nonc1C(=O)N[C@@H](COC(C)(C)C(F)(F)F)c1nc2cc([C@@H](C3CC3)N3C[C@@H](C4CC4)NC3=O)ccc2[nH]1` [Example 84, N—((R)-1-(5-((R)-Cyclopropyl((R)-4-cyclopropyl-2-oxoimidazolidin-1-yl)methyl)-1H-benzo[d]imidazol-2-yl)-2-((1,1,1-trifluoro-2-methylpropan-2-yl)oxy)ethyl)-4-methyl-1,2,5-oxadiazole-3-carboxamide], the IC50 in test [1] and in test [2] was under 50 nM throughout.
Consider `CC(C)(OC[C@H](NC(=O)c1nonc1C1CC1)c1nc2nc(CN3C[C@H](C(F)(F)F)NC3=O)ccc2[nH]1)C(F)(F)F` (relative stereo) [Example 38, 4-Cyclopropyl-N—((R*)-1-(5-(((R*)-2-oxo-4-(trifluoromethyl)imidazolidin-1-yl)methyl)-1H-imidazo[4,5-b]pyridin-2-yl)-2-((1,1,1-trifluoro-2-methylpropan-2-yl)oxy)ethyl)-1,2,5-oxadiazole-3-carboxamide], for which the IC50 in test [1] and in test [2] was under 50 nM in each case.
For `Cc1nonc1C(=O)N[C@@H](COC(C)(C)C(F)(F)F)c1nc2cc([C@H](N3CC(F)(F)CNC3=O)C3(C#N)CC3)ccc2[nH]1` (relative stereo) [Example 40, N—((R*)-1-(5-((S*)-(1-Cyanocyclopropyl)(5,5-difluoro-2-oxotetrahydropyrimidin-1(2H)-yl)methyl)-1H-benzo[d]imidazol-2-yl)-2-((1,1,1-trifluoro-2-methylpropan-2-yl)oxy)ethyl)-4-methyl-1,2,5-oxadiazole-3-carboxamide], the IC50 in test [1] is 50 to 100 nM; in test [2], over 100 nM.
Regarding `CC(C)(OC[C@H](NC(=O)c1nonc1C1CC1)c1nc2cc([C@@H](C3CC3)N3C[C@@H](C(F)(F)F)NC3=O)ccc2[nH]1)C(F)(F)F` [Example 1, 4-Cyclopropyl-N—((R)-1-(5-((R)-cyclopropyl((S)-2-oxo-4-(trifluoromethyl)imidazolidin-1-yl)methyl)-1H-benzo[d]imidazol-2-yl)-2-((1,1,1-trifluoro-2-methylpropan-2-yl)oxy)ethyl)-1,2,5-oxadiazole-3-carboxamide], the IC50 in test [1] and in test [2] was under 50 nM in each case.
In the case of `CC(C)n1nccc1C(=O)N[C@@H](COC(C)(C)C(F)(F)F)c1nc2cc([C@@H](C3CC3)N3CC(F)(F)CNC3=O)ccc2[nH]1` [Example 24, N—((R)-1-(5-((R)-Cyclopropyl(5,5-difluoro-2-oxotetrahydropyrimidin-1(2H)-yl)methyl)-1H-benzo[d]imidazol-2-yl)-2-((1,1,1-trifluoro-2-methylpropan-2-yl)oxy)ethyl)-1-isopropyl-1H-pyrazole-5-carboxamide], the half-maximal inhibitory concentration (IC50) in test [1] and in test [2] was under 50 nM in each case.

For orientation: IC50 means the concentration at which inhibition is half-maximal.
